# Measurements published in patent publication US20060165683A1, “Methods and compositions for control of bone formation via modulation of sympathetic tone” (priority 2001, published 2006).
# B1: Oncostatin-M: positive control that induces Stat3 phosphorylation in osteoblasts (protein, UniProt P13725 26-221, looked up)
# Oncostatin-M: AAIGSCSKEYRVLLGQLQKQTDLMQDTSRLLDPYIRIQGLDVPKLREHCRERPGAFPSEETLRGLGRRGFLQTLNATLGCVLHRLADLEQRLPKAQDLERSGLNIEDLEKLQMARPNILGLRNNIYCMAQLLDNSDTAEPTKAGRGASQPPTPTPASDAFQRKLEGCRFLHGYHRFMHSVGRVFSKWGESPNRSRR
# How the values were obtained:
# ob/ob mice [1] = test: ICV infusion of MTII in ob/ob mice; format: in vivo, mouse; conditions: ICV 125 ng/hr, 28 days
# Description: (§1) Wildtype (C57BL/6J) and mutant (C57BL/6J A^y/a, C57BL/6J ob/ob) mice were obtained from the Jackson laboratory and adrenal medullectomized mice from Harlan Tecklad laboratory. Dbh−/− mice were rescued as previously described (Thomas et al., 1998, Neurochem 70:2468-2476). Isoproterenol (Sigma) was injected intraperitoneally (ip) once daily for 6 weeks at 30 mg/kg (wt) or 3 mg/kg (ob/ob). Propranolol (Sigma) was added to the drinking water at a concentration of 0.5 g/l. For ICV infusion, a 28-gauge cannula (Brain infusion kit II, Alza) was implanted into the third ventricle as previously described infusing human leptin (Sigma) at 8 ng/hr or MT-II at 125 ng/hr (Phoenix Pharmaceuticals) for 28 days (see, e.g., Ducy et al., 2000, Cell 100: 197-207). The cannula was connected to an osmotic pump (Alza) placed in the dorsal subcutaneous space of the animal. For parabiosis longitudinal incisions were made in the skin and in the peritoneal cavity along one side on each mouse. Edges of the incisions were connected by suture to induce coelioanastomosis. Cross-circulation was quantified by injecting 1 ml/kg 0.25% Evans blue into the tail vein of one mouse of the parabiosed pair. After 30 min. blood was collected from both mice by retroorbital bleeding and the blood exchange rate was calculated according to standard techniques (see, e.g., Harris & Martin, 1984, Am J Physiol 247:R380-386). […]
# bone marrow adipocytes = conditions: lumbar spine; cited from earlier work
# [2] = system: murine primary osteoblasts; test: cAMP production in murine primary osteoblasts; format: cell-based, mouse; conditions: confluent cultures, 100 μM IBMX, 5 min treatment; PTH as positive control
# Description: (§2) Primary osteoblast cultures were established as previously described (see, e.g., Ducy et al., 2000, Cell 100: 197-207) and maintained in αMEM/0.1 mg/ml ascorbic acid supplemented with 10% FBS. SaOS-2 were grown in MEM/10% FBS. For cAMP assay confluent cultures were incubated with serum free medium containing 100 μM IBMX (3-isobutyl-1-methylxanthine, Sigma) for 8 minutes before PBS, PTH(1-34) (Bachem), isoproterenol, norepinephrine, phenylephrine (Sigma) or propranolol were added for 5 min. Intracellular cAMP concentration was measured by immunoassay (R&D Systems). For gene expression analyses, primary osteoblasts were treated for 72 hours with appropriate drugs in 0.1% FBS. Hormone serum levels were quantified using immunoassays kits from Peninsula Laboratories (Insulin) or Alpco Diagnostics (leptin). Deoxypyridinoline cross-links and Creatinine were measured in morning urines using the Quidel kits. a1(I) leptin bioactivity was verified by cotransfection of 293 cells expressing ObRb with a STAT3-responsive-luc reporter construct, pSVβgal plasmid and a1(I) leptin expression vector or mock. Twenty-four hours later luciferase and β-galactosidase activities were measured. Data represents ratios of luciferase/β-galactosidase activities, and values are mean of 6 independent transfection experiments.
# For a sympathetic regulation of bone formation to exist several requirements have to be fulfilled. The first one is that functional adrenergic receptors are present on osteoblasts. […] Immunohistochemical analysis of long bones from transgenic mice expressing LacZ under the control of the osteoblast-specific fragment of the a1(I) collagen promoter verified the presence of β2-adrenergic receptors on osteoblasts (FIG. 13B). No other adrenergic receptor subtype could be detected. […] Electron micrographs confirmed the presence of unmyelinated peripheral nerve axons coursing through the marrow adjacent to bone trabeculae and to osteoblasts (FIG. 13E). β-adrenergic receptors are G-coupled receptors that signal through the cAMP pathway (see, e.g., Benovic et al., 1988, Annu Rev Cell Biol 4:405-428). Thus, to assess the biologic relevance of the presence of β2-adrenergic receptors on osteoblasts, these cells were treated with isoproterenol, a β-adrenergic agonist, alone or in the presence of propranolol, a β-adrenergic receptor antagonist; with norepinephrine, the natural ligand of β-adrenergic receptors; with phenylephrine, an α-adrenergic agonist or with vehicle and measured cAMP production. As a positive control, parathyroid hormone (PTH) that binds to another G-coupled receptor present in osteoblasts was used (Gardella & Juppner, 2001, Trends Endocrinol Metab 12:210-217.). […] These effects were abolished by propranolol treatment. […]
# ovariectomized rat = conditions: cited from earlier work
# C57BL/6J pups = test: MSG lesioning of the hypothalamus in mice; format: in vivo, mouse
# Description: as §1
# ob/ob mice [3] = test: 17 β-estradiol or testosterone treatment of hypogonadic ob/ob mice; format: in vivo, mouse
# Text: Nevertheless, to address this point more thoroughly the hypogonadism of the ob/ob mice was exploited. Hypogonadism normally leads to an increase in osteoclasts number and in bone resorptive activity. […] On the other hand, if the osteoclasts of the ob/ob mice were not functioning properly, correcting their hypogonadism should not affect the severity of their high bone mass phenotype. To determine which of these two possibilities was correct, 17 β-estradiol or placebo pellets (Innovative Research of America) were implanted subcutaneously in 2-month-old female ob/ob mice to maintain a serum concentration of 250 pg/mL. These animals were analyzed after a 3-month treatment period.
# Finally, the function of the osteoclasts of ob/ob and db/db mice was studied in vitro in an assay using hematopoietic progenitor cells from wild type, ob/ob, or db/db mice and growth factors known to induce the differentiation of these cells into functional osteoclasts. Mouse osteoclasts were generated in vitro according to protocols previously reported (Simonet et al., 1997, Cell 89, 309-319; Quinn et al., 1998, Endocrinology 139, 4424-4427). […] Medium was changed every other day. After 6 days of culture, cells were fixed in 3.7% formalin. Osteoclasts formed on plastic plates were stained for tartrate resistant acid phosphatase. Cells on dentin chips were removed by treatment with sodium hypochloride solution. Dentin chips were then stained with toluidine blue to visualize resorption pits.
# wild-type (wt) mice = test: 17 β-estradiol treatment of wild-type mice; format: in vivo, mouse
# [4] = system: human SaOS-2 osteoblastic cells; test: cAMP production in human SaOS-2 osteoblastic cells; format: cell-based; conditions: SaOS-2, 100 μM IBMX, 5 min treatment
# Description: as §2
# For a sympathetic regulation of bone formation to exist several requirements have to be fulfilled. The first one is that functional adrenergic receptors are present on osteoblasts. […] No other adrenergic receptor subtype could be detected. […] Thus, to assess the biologic relevance of the presence of β2-adrenergic receptors on osteoblasts, these cells were treated with isoproterenol, a β-adrenergic agonist, alone or in the presence of propranolol, a β-adrenergic receptor antagonist; with norepinephrine, the natural ligand of β-adrenergic receptors; with phenylephrine, an α-adrenergic agonist or with vehicle and measured cAMP production. […]
# C57BL/6J mice = test: GTG lesioning of the hypothalamus in wt mice; format: in vivo, mouse
# Description: Wildtype (C57BL/6J) and mutant (C57BL/6J A^y/a, C57BL/6J ob/ob) mice were obtained from the Jackson laboratory and adrenal medullectomized mice from Harlan Tecklad laboratory. Dbh−/− mice were rescued as previously described (Thomas et al., 1998, Neurochem 70:2468-2476). Isoproterenol (Sigma) was injected intraperitoneally (ip) once daily for 6 weeks at 30 mg/kg (wt) or 3 mg/kg (ob/ob). Propranolol (Sigma) was added to the drinking water at a concentration of 0.5 g/l. For ICV infusion, a 28-gauge cannula (Brain infusion kit II, Alza) was implanted into the third ventricle as previously described infusing human leptin (Sigma) at 8 ng/hr or MT-II at 125 ng/hr (Phoenix Pharmaceuticals) for 28 days (see, e.g., Ducy et al., 2000, Cell 100: 197-207). The cannula was connected to an osmotic pump (Alza) placed in the dorsal subcutaneous space of the animal. For parabiosis longitudinal incisions were made in the skin and in the peritoneal cavity along one side on each mouse. Edges of the incisions were connected by suture to induce coelioanastomosis. Cross-circulation was quantified by injecting 1 ml/kg 0.25% Evans blue into the tail vein of one mouse of the parabiosed pair. After 30 min. blood was collected from both mice by retroorbital bleeding and the blood exchange rate was calculated according to standard techniques (see, e.g., Harris & Martin, 1984, Am J Physiol 247:R380-386). […] Two weeks after parabiosis a pump delivering leptin ICV in one animal of each pair was implanted. For GTG lesioning, 4-week-old C57BL/6J mice were given a single ip injection of either PBS or GTG (0.5 mg/g). For MSG lesioning, 2 day-old C57BL/6J pups were injected daily subcutaneously with either PBS or MSG (2 mg/g) for 10 days.
# Next, 4-week-old wt mice were treated with gold thioglucose (GTG), a compound that destroys neurons of the VMH and of the more dorso-lateral part of the ARC although it affects other neurons (see, e.g., Debons et al., 1962, Am J Physiol 4:743-750). […] As with ob/ob mice, this HBM was due to an increase in bone formation defined by an increase in the bone formation rate (FIG. 9E). […] These findings established that neurons sensitive to GTG are involved in the control of bone mass.
# [5] = system: primary osteoblasts isolated from wild-type mice; test: Leptin signaling in primary osteoblast cultures (Stat3 phosphorylation, immediate early genes, matrix synthesis and mineralization); format: cell-based, mouse
# Description: Expression of leptin in osteoblasts was studied in subconfluent primary osteoblast cultures from wild-type mice which were maintained for 4 days in 10% FBS mineralization medium and then subsequently switched to 0.5% for 2 days and replaced daily. Medium was replaced 2 hours before a 20 min treatment with 80 ng/mL leptin (Sigma) or 40 ng/mL Oncostatin M (R&D Diagnostics) or vehicle. RNA extractions were performed using Triazol (Gibco). Northern blots were performed with 15 μg of total RNA according to methods well known in the art.
# To determine whether or not leptin could transduce its signal in osteoblasts, serum-starved primary osteoblasts isolated from wild-type mice were treated with leptin. Primary osteoblast cultures from calvaria of newborn wild-type or db/db mice were established as previously described (Ducy et al., 1999, Genes Dev 13, 1025-1036) and maintained in mineralization medium (αMEMI 0.1 mg/mL ascorbic acid; 5 mM […]) supplemented with 10% […]. Cultures of mutant cells were maintained in this medium for 15 days before analysis. Cultures derived from wild-type mice were maintained for 10 days in this medium then the percentage of serum was reduced to 0.5% and the medium supplemented with 1.2 μg/mL leptin (Sigma) or vehicle for 5 days.
# The phosphorylation of Stat3, a downstream effector of leptin signaling in its target cells (Tartaglia et al., 1995, Cell 83, 1263-1271; Baumann et al., 1996, Proc Natl Acad Sci USA 93, 8374-8378; Ghilardi et al., 1996, Proc Natl Acad Sci USA 93, 6231-6235; Vaisse et al., 1996, Nat Genet 14, 95-97), was monitored, in addition to the expression of two immediate early genes whose transcription is increased following leptin treatment of target cells (Elmquist et al., 1997, Endocrinology 138, 839-842). As a positive control oncostatin-M that induces Stat3 phosphorylation and activates the expression of the same two immediate early genes in osteoblasts (Levy et al., 1996, Endocrinology 137, 1159-1165) was utilized. Western blot analysis was performed to determine Stat3 phosphorylation as follows. Cells were lysed, protein extracts were separated on a 7.5% SDS-PAGE and blotted on nitrocellulose (Biorad) for immunoblotting assay by methods well known in the art. Analysis of Stat3 phosphorylation was performed using the PhosphoPlus Stat3 (Tyr7O5) Antibody kit (New England Biolabs) according to the manufacturer's instructions.
# Finally, the effect of a long-term leptin treatment of primary osteoblast cultures from wild-type mice on extracellular matrix synthesis and bone matrix mineralization was determined. The presence of a collagen-rich extracellular matrix and of mineralization nodules was assessed by whole-mount staining of the cultures by the van Gieson and von Kossa reagent, respectively. No difference was observed when assessing collagen synthesis or mineralization nodule formation between control and leptin-treated cultures (FIG. 5E).
# [6] = estradiol-treated ob/ob mice, end of treatment period
# [7] = female ob/ob mice, 3-month treatment
molecule,measurement,setting,value
MTII,body weight,ob/ob mice [1],significantly decreased
same,bone mass,ob/ob mice [1],did not affect
COC(=O)COc1ccc(CC(C)NCC(O)c2cccc(Cl)c2)cc1 (stereo not drawn) [BRL 35135],sizes of bone marrow adipocytes,bone marrow adipocytes,reduce
CNC[C@H](O)c1cccc(O)c1 [phenylephrine],cAMP production,[2],not
CC(C)(C)NCC(O)c1ccc(O)c(CO)c1 (stereo not drawn) [salbutamol],effects in bone,ovariectomized rat,Anabolic effects
"N[C@@H](CCC(=O)O)C(=O)[O-].[Na+] [MSG, monosodium glutamate]",ARC structures (neurons synthesizing NPY),"C57BL/6J pups; newborn pups, 2 mg/g subcutaneously daily for 10 days",markedly affected
same,"bone mass (bone volume, histology)",C57BL/6J pups; twelve week-old MSG-treated mice,normal
C[C@]12CC[C@@H]3c4ccc(O)cc4CC[C@H]3[C@@H]1CC[C@@H]2O [17 β-estradiol],"hypogonadism, as judged by the aspect of uteri and levels of estradiol in blood","ob/ob mice [3]; 2-month-old female ob/ob mice, subcutaneous pellets, serum 250 pg/mL, 3-month treatment",corrected their hypogonadism
same,increase in bone volume compared to estradiol-treated wild-type mice,ob/ob mice [3]; [6],50%
same,increase in bone volume compared to untreated wild-type mice,ob/ob mice [3]; [6],3 fold
same,high bone mass phenotype compared to placebo treated ob/ob mice,ob/ob mice [3]; [7],further increase
same,osteoclast number,ob/ob mice [3]; [7],normalization
same,bone trabeculae (histological analysis of vertebrae),wild-type (wt) mice,significant increase
NC[C@H](O)c1ccc(O)c(O)c1 [norepinephrine],cAMP production,[2],increased
same,cAMP production,[4],induced
"OC[C@@H](O)[C@@H](O)[C@H](O)[C@@H](O)C=S.[Au] [GTG, gold thioglucose]",VMH neurons expressing SF1 (immunohistochemistry),"C57BL/6J mice; 4-week-old wt mice, single ip injection 0.5 mg/g",marked perturbation
same,bone formation rate,C57BL/6J mice; 12 week-old GTG-treated mice,increase
same,bone mass (bone histologic analysis),C57BL/6J mice; 12 week-old GTG-treated mice,HBM whose severity was nearly identical to that of ob/ob mice
same,urinary elimination of deoxypyridinoline (dpd) and osteoclast numbers,C57BL/6J mice; GTG-treated mice,normal
B1,expression of Tis11 and c-fos (Northern analysis),"[5]; primary osteoblasts, 20 min treatment",quickly and transiently activated
same,Stat3 phosphorylation (Western blot),"[5]; serum-starved primary osteoblasts, 20 min, leptin 80 ng/mL, Oncostatin M 40 ng/mL",did induce
